This note sets out measurements from patent publication US7361659B2, “Pyrrazolo-pyrimidine derivatives” (Hoffmann-La Roche Inc., priority 2005, dated 2008).

Each structure is given as a SMILES string.

In one data set the target is T1, rat mGlu2 receptor (Rattus norvegicus, UniProt P31421).
T1 construct: expressed in transfected cells; membranes prepared
The data set can be described thus: [3H]-LY354740 binding on mGlu2 transfected CHO cell membranes. The note with it: 10 nM [3H]-LY354740, membranes of CHO cells transfected with rat mGlu2, room temperature, 1 hour. From the text: [^3H]-LY354740 Binding on mGlu2 Transfected CHO Cell Membranes. Transfection and Cell Culture
cDNA encoding the rat mGlu2 receptor protein in pBluescript II was subcloned into the eukaryotic expression vector pcDNA I-amp from Invitrogen Ltd (Paisley, UK). This vector construct (pcD1mGR2) was co-transfected with a psvNeo plasmid encoding the gene for neomycin resistance, into CHO cells by a modified calcium phosphate method described by Chen & Okayama (1988). The cells were maintained in Dulbecco's Modified Eagle medium with reduced L-glutamine (2 mM final concentration) and 10% dialysed foetal calf serum from Gibco-Invitrogen (Carlsbad, Calif., USA). Selection was made in the presence of G-418 (1000 ug/ml final) and […]. Clones were identified by reverse transcription of 5 μg total RNA, followed by PCR mGlu2 receptor specific primers 5′-[…]-3′ and 5′-[…]-3′in 60 mM Tris HCl (pH 10), 15 mM (NH4)2SO4, 2 mM MgCl2, 25 units/ml Taq Polymerase with 30 cycles annealing at 60° C. for 1 min., extention at 72° C. for 30 s, and 1 min. 95° C. denaturation.
Cells, cultured as above, were harvested and washed three times with cold PBS and frozen at −80° C. The pellet was resuspended in cold 20 mM HEPES-NaOH buffer containing 10 mM EDTA (pH 7.4), and homogenised with a polytron (Kinematica, AG, Littau, Switzerland) for 10 s at 10 000 rpm. After centrifugation for 30 min. at 4° C., the pellet was washed once with the same buffer, and once with cold 20 mM HEPES-NaOH buffer containing 0.1 mM EDTA, (pH 7.4). Protein content was measured using the micro BCA method from Pierce-Perbio (Rockford, Ill., USA) using bovine serum albumin as standard.
After thawing, the membranes were resuspended in cold 50 mM Tris-HCl buffer containing 2 mM MgCl2 (pH 7) (binding buffer). The final concentration of the membranes in the assays was 25 μg protein/ml. Inhibition experiments were performed with membranes incubated with 10 nM [^3H]-LY354740 at room temperature, for 1 hour, in presence of various concentrations of the compound to be tested. Following the incubations, membranes were filtered onto Whatmann GF/B glass fiber filters and washed 5 times with cold binding buffer. Non specific binding was measured in the presence of 10 μM DCG IV. After transfer of the filters into plastic vials containing 10 ml of Ultima-gold scintillation fluid from Perkin-Elmer(Boston, Mass., USA), the radioactivity was measured by liquid scintillation in a Tri-Carb 2500 TR counter (Packard, Zürich, Switzerland).
The inhibition curves were fitted with a four parameter logistic equation giving IC50 values, and Hill coefficients.

T1 sequence (P31421 19-872): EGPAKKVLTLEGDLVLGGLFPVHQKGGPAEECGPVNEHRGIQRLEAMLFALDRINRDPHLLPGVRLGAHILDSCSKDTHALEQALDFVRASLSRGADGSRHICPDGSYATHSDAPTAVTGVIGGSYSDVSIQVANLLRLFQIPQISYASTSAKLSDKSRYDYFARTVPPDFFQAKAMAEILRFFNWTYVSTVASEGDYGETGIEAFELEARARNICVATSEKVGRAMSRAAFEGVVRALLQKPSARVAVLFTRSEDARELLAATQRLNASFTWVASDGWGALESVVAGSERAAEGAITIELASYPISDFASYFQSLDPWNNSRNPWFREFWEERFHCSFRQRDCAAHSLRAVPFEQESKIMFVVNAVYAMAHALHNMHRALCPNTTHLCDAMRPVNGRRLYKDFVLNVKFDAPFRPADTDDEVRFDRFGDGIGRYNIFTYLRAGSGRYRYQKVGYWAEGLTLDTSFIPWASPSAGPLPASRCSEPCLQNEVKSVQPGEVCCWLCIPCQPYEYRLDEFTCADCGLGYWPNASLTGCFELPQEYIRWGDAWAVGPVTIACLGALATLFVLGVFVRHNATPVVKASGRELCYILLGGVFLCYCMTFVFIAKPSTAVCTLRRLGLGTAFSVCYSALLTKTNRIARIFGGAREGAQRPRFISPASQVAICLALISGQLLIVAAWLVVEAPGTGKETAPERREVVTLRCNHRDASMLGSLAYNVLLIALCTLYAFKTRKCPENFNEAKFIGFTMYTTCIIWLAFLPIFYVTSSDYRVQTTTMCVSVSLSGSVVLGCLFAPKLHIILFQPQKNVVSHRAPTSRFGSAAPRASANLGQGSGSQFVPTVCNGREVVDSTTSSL

As usually defined, the Ki is a dissociation constant, usually derived from enzyme kinetics or from competition with a known ligand. Broadly, the melting point is the temperature of the solid-liquid transition. As for `NS(=O)(=O)c1nnc(NC(=O)c2cnn3c(C(F)F)cc(-c4ccc(C(F)(F)F)cc4)nc23)s1` [Example 3, 7-Difluoromethyl-5-(4-trifluoromethyl-phenyl)-pyrazolo[1,5-a]pyrimidine-3-carboxylic acid (5-sulfamoyl-[1,3,4]thiadiazol-2-yl)-amide], the melting point was 284 °C. The compound further had a Ki on rat mGlu2 receptor of 142 nM.

`NS(=O)(=O)c1cc(NC(=O)c2cnn3c(C(F)(F)F)cc(-c4ccc(C(F)(F)F)cc4)nc23)c(Cl)s1` [Example 2, 7-Trifluoromethyl-5-(4-trifluoromethyl-phenyl)-pyrazolo[1,5-a]pyrimidine-3-carboxylic acid (2-chloro-5-sulfamoyl-thiophen-3-yl)-amide]: the melting point worked out at 275 °C. Besides, the inhibition constant Ki at rat mGlu2 receptor amounted to 6.9 nM.

Regarding `O=C(Nc1cc(S(=O)(=O)N(CCO)CCO)sc1Cl)c1cnn2c(C(F)(F)F)cc(-c3ccc(C(F)(F)F)cc3)nc12` [Example 35, 7-Trifluoromethyl-5-(4-trifluoromethyl-phenyl)-pyrazolo[1,5-a]pyrimidine-3-carboxylic acid {5-[bis-(2-hydroxy-ethyl)-sulfamoyl]-2-chloro-thiophen-3-yl}-amide], the melting point amounted to 217 °C. At rat mGlu2 receptor, this compound returned a Ki of 27 nM.

As for `Cc1nc(NC(=O)c2cnn3c(C(F)(F)F)cc(-c4ccc(C(F)(F)F)cc4)nc23)sc1S(N)(=O)=O` [Example 8, 7-Trifluoromethyl-5-(4-trifluoromethyl-phenyl)-pyrazolo[1,5-a]pyrimidine-3-carboxylic acid (4-methyl-5-sulfamoyl-thiazol-2-yl)-amide], the melting point stood at 303 °C. On rat mGlu2 receptor, this compound returned an inhibition constant (Ki) of 2.5 nM.
